Measurements published in patent EP2703003A1, “A pomegranate extract and compositions containing pomegranate polyphenols for treating or preventing diseases or physiopathological conditions associated with an excessive gene expression and/or physiological activity of interleukin-6” (Probelte Biotecnologia S.L., priority 2012, dated 2014).
Like-named read-outs stand apart in the source and are kept apart here.

How the values were obtained:
[1] = tested on: dermal papilla hair follicle cells; conditions: 24 hours, 270 picog/mL at dose 0
Procedure: In another independent study, in vitro cultures of dermal papilla hair follicle cells grown using DMEM as a culture medium were seeded at a density of 1.5 x 10^5 cells per 50 mm of plate surface and incubated overnight. Then 3 consecutive washes with PBS were performed and DMEM culture medium supplemented with variables amounts of DHT was added to each of the cultures; specifically three doses were tested: 0, 25 and 100 nanoM. The culture medium was sampled after 24 hours to measure the concentration of interleukin-6 by means of ELISA.

[2] = side effect, background statement; cited from earlier work

SMILES	mean concentration of interleukin-6 in the culture media ([1]; 25 nanoM)	mean concentration of interleukin-6 in the culture media ([1]; 100 nanoM)	itchy scalp [2]
C[C@]12CCC(=O)C[C@@H]1CC[C@@H]1[C@@H]2CC[C@]2(C)[C@@H](O)CC[C@@H]12 [DHT, 5-dihydrotestosterone]	1270 picog/mL	2190 picog/mL	
Nc1cc(N2CCCCC2)nc(N)[n+]1[O-] [Minoxidil]			1.5 % of patients
